# From ChEMBL document CHEMBL1201862, “PubChem BioAssay data set” (2004)
# Active and inactive are the calls of the source.
# Experiments:
# INS1 [1] = test: beta-cell survival under cytokine stress – INS-1E, ATP luminescence, dry powder, dose response (AID 488844); format: functional, cell-based; conditions: Rattus norvegicus
# INS1 [2] = test: suppression of cytokine-induced beta-cell apoptosis – INS-1E, caspase luminescence, dry powder, beta-cell apoptosis inhibitor project, dose response (AID 488848); format: functional, cell-based; conditions: Rattus norvegicus
# [3] = suppression of NO production in INS-1E cells – cell-based, Griess absorbance, dry powder, set 3, dose response (AID 488870); format: functional; conditions: Rattus norvegicus
# INS1 [4] = test: INS-1E mitochondrial potential loss inhibitors – cell-based, JC-1 fluorescence, dry powder, set 2, dose response (AID 488867); format: functional; conditions: Rattus norvegicus
# INS1 [5] = test: suppression of NO production in INS-1E cells – cell-based, Griess absorbance, dry powder, set 2, dose response (AID 488868); format: functional; conditions: Rattus norvegicus
# Caspase-3 = molecular target: T1, Caspase-3 (Homo sapiens, UniProt P42574); test: inhibition of recombinant caspase-3 activity – biochemical, luminescence, set 2, selectivity assay for SENP protease inhibitor project, SAR follow-up (AID 588599); format: functional
# T1 sequence (P42574 whole entry): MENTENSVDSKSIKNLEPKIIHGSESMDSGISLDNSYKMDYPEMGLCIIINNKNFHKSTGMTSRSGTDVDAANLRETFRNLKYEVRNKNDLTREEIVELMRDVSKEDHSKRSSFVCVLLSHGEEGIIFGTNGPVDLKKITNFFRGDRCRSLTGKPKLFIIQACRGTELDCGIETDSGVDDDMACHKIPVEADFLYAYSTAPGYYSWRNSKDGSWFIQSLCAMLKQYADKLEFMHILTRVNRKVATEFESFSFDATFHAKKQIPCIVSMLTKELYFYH
# [6] = molecular target: T2, Sentrin-specific protease 8 (Homo sapiens, UniProt Q96LD8); test: inhibition of sentrin protease 8 – biochemical, luminescence, set 2, SAR follow-up (AID 588601); format: functional
# T2 sequence (Q96LD8 whole entry): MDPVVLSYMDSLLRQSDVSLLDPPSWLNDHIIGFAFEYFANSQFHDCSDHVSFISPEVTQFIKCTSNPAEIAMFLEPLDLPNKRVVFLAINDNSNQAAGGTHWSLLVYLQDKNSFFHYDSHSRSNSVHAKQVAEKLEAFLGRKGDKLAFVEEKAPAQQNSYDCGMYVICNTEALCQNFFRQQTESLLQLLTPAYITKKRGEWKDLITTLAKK
# [7] = molecular target: T3, Sentrin-specific protease 7 (Homo sapiens, UniProt Q9BQF6); test: inhibition of human SENP7 cleavage activity – biochemical, luminescence, set 2, SAR follow-up (AID 588600); format: functional
# T3 sequence (Q9BQF6 whole entry): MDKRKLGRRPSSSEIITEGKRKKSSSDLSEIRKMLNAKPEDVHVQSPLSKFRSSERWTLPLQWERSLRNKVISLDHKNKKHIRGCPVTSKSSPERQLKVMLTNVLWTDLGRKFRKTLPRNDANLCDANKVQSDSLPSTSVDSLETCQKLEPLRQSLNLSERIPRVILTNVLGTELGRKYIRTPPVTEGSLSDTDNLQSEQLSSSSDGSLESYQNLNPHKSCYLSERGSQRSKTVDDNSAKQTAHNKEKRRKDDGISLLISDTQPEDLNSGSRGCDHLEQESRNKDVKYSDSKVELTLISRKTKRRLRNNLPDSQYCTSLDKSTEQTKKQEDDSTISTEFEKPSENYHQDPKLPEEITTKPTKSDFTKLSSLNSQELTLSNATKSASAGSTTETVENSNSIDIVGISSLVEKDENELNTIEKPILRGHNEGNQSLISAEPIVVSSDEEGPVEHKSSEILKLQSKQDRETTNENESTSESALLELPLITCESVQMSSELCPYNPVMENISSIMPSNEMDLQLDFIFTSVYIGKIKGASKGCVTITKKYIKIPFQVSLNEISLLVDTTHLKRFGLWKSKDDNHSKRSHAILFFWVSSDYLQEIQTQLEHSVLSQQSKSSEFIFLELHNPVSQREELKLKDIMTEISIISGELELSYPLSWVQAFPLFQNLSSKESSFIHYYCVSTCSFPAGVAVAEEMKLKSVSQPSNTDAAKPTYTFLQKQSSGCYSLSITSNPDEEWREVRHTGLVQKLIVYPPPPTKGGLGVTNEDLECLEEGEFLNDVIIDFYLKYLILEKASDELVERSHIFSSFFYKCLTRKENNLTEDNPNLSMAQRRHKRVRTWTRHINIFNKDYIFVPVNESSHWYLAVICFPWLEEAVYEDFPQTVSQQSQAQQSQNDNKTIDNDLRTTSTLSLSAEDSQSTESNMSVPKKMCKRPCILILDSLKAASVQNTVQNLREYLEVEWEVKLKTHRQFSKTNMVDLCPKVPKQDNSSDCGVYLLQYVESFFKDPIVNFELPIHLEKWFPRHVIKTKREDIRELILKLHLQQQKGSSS
# [8] = molecular target: T4, Sentrin-specific protease 6 (Homo sapiens, UniProt Q9GZR1); test: inhibition of human SENP6 catalytic domain – biochemical, luminescence, set 2, SAR follow-up (AID 588598); format: functional
# T4 sequence (Q9GZR1 whole entry): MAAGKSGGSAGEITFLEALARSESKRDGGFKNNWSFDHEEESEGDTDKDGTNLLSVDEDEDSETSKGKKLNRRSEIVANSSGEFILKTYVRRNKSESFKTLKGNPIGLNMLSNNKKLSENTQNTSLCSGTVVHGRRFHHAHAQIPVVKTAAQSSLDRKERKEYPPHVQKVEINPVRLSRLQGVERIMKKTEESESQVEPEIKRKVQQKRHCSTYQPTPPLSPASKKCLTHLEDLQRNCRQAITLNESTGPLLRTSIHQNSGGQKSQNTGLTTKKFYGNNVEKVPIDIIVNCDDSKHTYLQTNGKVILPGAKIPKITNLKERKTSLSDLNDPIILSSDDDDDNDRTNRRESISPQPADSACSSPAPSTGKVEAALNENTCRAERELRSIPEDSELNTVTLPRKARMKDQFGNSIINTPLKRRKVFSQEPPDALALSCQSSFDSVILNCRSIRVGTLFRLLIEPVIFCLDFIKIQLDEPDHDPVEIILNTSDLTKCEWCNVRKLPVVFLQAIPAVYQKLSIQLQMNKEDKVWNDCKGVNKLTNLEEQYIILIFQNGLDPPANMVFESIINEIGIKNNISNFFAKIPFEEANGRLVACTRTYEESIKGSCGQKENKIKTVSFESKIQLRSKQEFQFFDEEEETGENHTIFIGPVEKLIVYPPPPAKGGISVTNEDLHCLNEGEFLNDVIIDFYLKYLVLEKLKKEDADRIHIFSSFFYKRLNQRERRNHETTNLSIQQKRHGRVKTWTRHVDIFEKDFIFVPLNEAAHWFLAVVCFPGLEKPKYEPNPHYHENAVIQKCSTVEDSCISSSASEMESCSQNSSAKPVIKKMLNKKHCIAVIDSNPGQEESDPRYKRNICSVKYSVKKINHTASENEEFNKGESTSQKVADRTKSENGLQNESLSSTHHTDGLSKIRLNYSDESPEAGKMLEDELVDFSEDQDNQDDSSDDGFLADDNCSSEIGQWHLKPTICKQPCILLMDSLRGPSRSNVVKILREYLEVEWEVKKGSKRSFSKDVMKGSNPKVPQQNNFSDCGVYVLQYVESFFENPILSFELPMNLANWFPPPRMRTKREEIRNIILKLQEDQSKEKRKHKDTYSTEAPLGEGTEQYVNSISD
# Phospholipase D1 = Phospholipase D1 (Homo sapiens, UniProt Q13393); test: cellular phospholipase D1 inhibition IC50 – cell-based, dose response (AID 602151); format: functional;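 note: cellular PLD1 assay in Calu-1 cells stimulated with PMA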
# Sequence of Phospholipase D1 (Q13393 whole entry): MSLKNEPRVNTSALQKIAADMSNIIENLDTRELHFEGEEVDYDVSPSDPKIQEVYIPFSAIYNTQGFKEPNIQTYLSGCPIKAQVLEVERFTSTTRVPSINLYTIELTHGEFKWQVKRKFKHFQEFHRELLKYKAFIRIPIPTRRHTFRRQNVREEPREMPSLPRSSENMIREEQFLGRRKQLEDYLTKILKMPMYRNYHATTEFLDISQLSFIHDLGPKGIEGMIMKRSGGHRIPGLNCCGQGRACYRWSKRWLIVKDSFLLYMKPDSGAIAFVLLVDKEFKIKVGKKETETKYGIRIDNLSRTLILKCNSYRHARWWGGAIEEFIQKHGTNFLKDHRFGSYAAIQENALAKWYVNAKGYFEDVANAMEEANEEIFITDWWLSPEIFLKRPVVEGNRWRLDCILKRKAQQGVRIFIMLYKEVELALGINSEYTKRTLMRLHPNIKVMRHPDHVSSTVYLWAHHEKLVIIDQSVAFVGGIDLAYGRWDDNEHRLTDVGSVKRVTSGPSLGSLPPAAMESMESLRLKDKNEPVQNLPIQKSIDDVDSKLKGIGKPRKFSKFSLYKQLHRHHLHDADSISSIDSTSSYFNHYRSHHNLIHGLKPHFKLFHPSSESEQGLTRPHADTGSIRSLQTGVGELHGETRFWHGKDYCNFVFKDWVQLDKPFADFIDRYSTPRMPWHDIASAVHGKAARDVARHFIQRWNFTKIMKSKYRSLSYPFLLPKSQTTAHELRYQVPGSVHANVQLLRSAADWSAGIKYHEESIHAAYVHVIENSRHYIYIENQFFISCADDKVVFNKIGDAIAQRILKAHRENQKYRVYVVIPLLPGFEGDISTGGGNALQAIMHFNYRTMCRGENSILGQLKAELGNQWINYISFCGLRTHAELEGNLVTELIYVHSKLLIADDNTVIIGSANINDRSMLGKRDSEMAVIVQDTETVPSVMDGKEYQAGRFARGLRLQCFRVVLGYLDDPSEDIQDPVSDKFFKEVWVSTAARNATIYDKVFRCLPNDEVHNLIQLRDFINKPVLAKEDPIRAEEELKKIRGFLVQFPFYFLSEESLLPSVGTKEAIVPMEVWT
# Phospholipase D2 = Phospholipase D2 (Homo sapiens, UniProt O14939); test: cellular phospholipase D2 inhibition IC50 – cell-based, dose response (AID 602147); format: functional;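 note: cellular assay in HEK293 cells overexpressing GFP-tagged PLD2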
# Sequence of Phospholipase D2 (O14939 whole entry): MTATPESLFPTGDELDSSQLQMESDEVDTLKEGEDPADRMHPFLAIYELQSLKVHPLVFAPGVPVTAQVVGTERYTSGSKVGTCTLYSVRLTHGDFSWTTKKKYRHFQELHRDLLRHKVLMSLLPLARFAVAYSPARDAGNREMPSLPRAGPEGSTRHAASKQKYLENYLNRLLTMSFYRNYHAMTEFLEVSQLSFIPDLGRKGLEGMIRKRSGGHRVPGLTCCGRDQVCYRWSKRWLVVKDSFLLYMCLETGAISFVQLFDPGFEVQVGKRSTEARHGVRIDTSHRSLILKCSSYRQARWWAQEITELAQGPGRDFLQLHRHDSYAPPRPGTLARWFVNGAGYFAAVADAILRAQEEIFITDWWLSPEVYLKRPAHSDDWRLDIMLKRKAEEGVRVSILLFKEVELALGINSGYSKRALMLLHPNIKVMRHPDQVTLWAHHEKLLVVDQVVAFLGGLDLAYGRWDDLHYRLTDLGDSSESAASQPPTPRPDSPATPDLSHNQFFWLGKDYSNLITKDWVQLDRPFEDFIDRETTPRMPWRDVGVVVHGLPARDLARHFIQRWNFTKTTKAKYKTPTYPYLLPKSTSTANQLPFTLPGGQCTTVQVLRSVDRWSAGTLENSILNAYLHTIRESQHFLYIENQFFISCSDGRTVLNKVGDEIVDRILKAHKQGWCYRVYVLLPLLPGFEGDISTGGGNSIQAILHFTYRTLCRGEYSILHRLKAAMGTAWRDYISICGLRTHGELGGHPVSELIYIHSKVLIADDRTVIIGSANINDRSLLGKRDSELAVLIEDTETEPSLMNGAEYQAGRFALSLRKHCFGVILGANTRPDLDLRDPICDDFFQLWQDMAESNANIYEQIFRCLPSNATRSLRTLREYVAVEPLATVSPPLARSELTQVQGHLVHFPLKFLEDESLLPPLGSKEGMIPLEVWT
# [9] = molecular target: Sphingosine 1-phosphate receptor 2 (Homo sapiens, UniProt O95136); test: Late-stage fluorescence-based dose-response cell-based counterscreen assay to identify agonists of the Sphingosine 1-Phosphate Receptor 3 (S1P3): Sphingosine 1-Phosphate Receptor 2 (S1P2) agonist assay.; format: functional
# Sequence of Sphingosine 1-phosphate receptor 2 (O95136 whole entry): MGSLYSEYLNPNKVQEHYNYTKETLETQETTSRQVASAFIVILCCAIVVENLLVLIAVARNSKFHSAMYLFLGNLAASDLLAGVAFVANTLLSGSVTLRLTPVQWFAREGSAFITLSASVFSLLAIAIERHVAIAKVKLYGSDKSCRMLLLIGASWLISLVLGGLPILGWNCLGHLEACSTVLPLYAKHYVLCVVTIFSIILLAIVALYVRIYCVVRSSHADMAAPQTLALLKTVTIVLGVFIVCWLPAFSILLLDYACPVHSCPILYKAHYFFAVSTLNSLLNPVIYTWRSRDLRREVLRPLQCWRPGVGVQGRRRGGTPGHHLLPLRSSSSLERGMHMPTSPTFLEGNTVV
# [10] = molecular target: T5, Sphingosine 1-phosphate receptor 4 (Homo sapiens, UniProt O95977); test: Late-stage fluorescence-based dose-response cell-based counterscreen assay to identify agonists of the Sphingosine 1-Phosphate Receptor 3 (S1P3): Sphingosine 1-Phosphate Receptor 4 (S1P4) agonist assay.; format: functional
# T5 sequence (O95977 whole entry): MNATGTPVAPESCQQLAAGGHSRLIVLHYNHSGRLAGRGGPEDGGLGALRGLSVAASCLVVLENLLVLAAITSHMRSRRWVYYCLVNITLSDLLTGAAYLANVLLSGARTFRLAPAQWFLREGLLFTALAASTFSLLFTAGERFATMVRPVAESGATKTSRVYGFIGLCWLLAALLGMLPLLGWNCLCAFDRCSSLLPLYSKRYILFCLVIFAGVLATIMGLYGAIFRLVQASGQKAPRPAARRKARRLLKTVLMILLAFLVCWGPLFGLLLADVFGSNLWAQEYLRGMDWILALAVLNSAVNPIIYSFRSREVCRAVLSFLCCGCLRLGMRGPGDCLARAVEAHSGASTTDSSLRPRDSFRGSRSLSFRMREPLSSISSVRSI
smiles,measurement,setting,value
COc1ccc(S(=O)(=O)N(C)C[C@@H]2Oc3c(NC(=O)Nc4cccc5ccccc45)cccc3C(=O)N([C@@H](C)CO)C[C@H]2C)cc1,AC50,INS1 [1],4.88 µM (active)
same,AC50,INS1 [2],81.2 µM (active)
same,AC50,[3],26.4 µM (active)
same,AC50,INS1 [4],259 µM (active)
same,AC50,INS1 [5],46.8 µM (active)
Cc1ccccc1-c1noc(/C(C#N)=C\c2ccccc2F)n1,IC50,Caspase-3,> 99 µM (inactive)
same,IC50,[6],> 99 µM (inactive)
same,IC50,[7],> 99 µM (inactive)
same,IC50,[8],> 99 µM (inactive)
O=C(NCCN1CCC2(CC1)CCN(c1ccccc1)C2=O)c1cnc2ccccc2c1,IC50,Phospholipase D1,20 µM (inactive)
same,IC50,Phospholipase D2,20 µM (active)
O=C(c1ccc(C2CC2)o1)N(C1CCCCC1)C1CCCCC1,EC50,[9],> 50 µM (inactive)
same,EC50,[10],> 50 µM (inactive)
